For this assay, the system named is hippocampal neurons, Aβ40-infused rats. Nature of the assay: Cresyl violet staining of Nissl granules in hippocampal neurons. Type of assay: in vivo, Sprague-Dawley rats. The settings on record: intra-hippocampal Aβ40, vs control and sham, P < 0.01, n = 6. The protocol:
The overproduction of Aβ damages hippocampal neurons and causes cognitive impairments in AD. […] Cresyl violet staining was performed for identification of Nissl granules in neurons to reveal hippocampal neurodegeneration in this experiment. […]
e. Histopathological experiments for sub-chronic toxicity
Histopathological analysis was carried out on the preserved liver and kidney tissues. The SP1 treated rats and control rats were sacrificed by decapitation after 42 days of treatment schedule. Organs were removed and fixed in 10% buffered neutral formalin for 48 h. The fixed organs were embedded in paraffin wax. Sections were cut by using a microtome with 5-micrometer thickness. Slides were stained with Haematoxylin and eosin (H &E staining) for histological examination. Slides were observed under the light microscope (Dewinter Smart, India)for histopathological changes, and images were taken at […]
The lyophilized Aβ40 peptide was dissolved in artificial cerebrospinal fluid (aCSF: 119mM NaCl, 26.2mm NaHCO3, 2.5mM KCl, 1mM NaH2PO4, 1.3mM MgCl2, 10mM glucose; pH 7.4) solution at a concentration of 1mg/ml for stock and incubated at 37°C for 72 h to induce aggregation. The solution finally kept at 4°C before using it. […]
respective concentrations of SP1were prepared from this stock solution. g. […]

On to “Aβ40: commercially available Aβ40 peptide”, for which the “intensity of Nissl granules, Aβ40 alone” value is “significant (P < 0.01) decrease in the intensity of Nissl granules”.

For the origin of these results see PMC8179358, “An explicitly designed paratope of amyloid-β prevents neuronal apoptosis in vitro and hippocampal damage in rat brain” (Chemical Science, 2020).
